Among the data in ChEMBL document CHEMBL1681649, “Design, synthesis and biological evaluation of novel 4-hydroxybenzene acrylic acid derivatives” (Bioorg Med Chem Lett, 2011) are Activity values, retold here.

Data set [1] has as its system Mus musculus. Kind of data set: Antiinflammatory activity in xylene-induced Kunming mouse ear edema model assessed as suppression of ear swelling at 300 mg/kg, po. Type of data set: functional.
Data set [2] deals with Mus musculus. In words: Antiinflammatory activity in xylene-induced Kunming mouse ear edema model assessed as suppression of ear swelling at 150 mg/kg, po. The format is functional.
Data set [3] has as its system Mus musculus. Kind of data set: Antiinflammatory activity in xylene-induced Kunming mouse ear edema model assessed as suppression of ear swelling at 75 mg/kg, po. Type of data set: functional.
Data set [4] concerns Mus musculus. Kind of data set: Cardiotoxicity in Kunming mouse assessed as pathological changes at 150 mg/kg, po after 12 days. The arrangement: dose 150 mg/kg, route oral. To be noted: in vivo, 288 h. Type of data set: toxicity, organism-based.
Data set [5] concerns Mus musculus. In words: Antiinflammatory activity in xylene-induced Kunming mouse ear edema model assessed as suppression of ear swelling at 100 mg/kg, po. The format is functional.
In data set [6] the test system is Mus musculus. Kind of data set: Cardiotoxicity in Kunming mouse assessed as pathological changes at 100 mg/kg, po after 12 days. Type of data set: toxicity, organism-based. The arrangement: dose 100 mg/kg, route oral. Particulars: in vivo, 288 h.

As for `COc1cc(/C=C(/C(=O)O)c2ccc(S(C)(=O)=O)cc2)ccc1OC(C)=O`, the Activity was 45.29% in the data set with Mus musculus [1], 26.12% with Mus musculus [2], 12.38% in the data set with Mus musculus [3] and “Non-toxic” in the data set with Mus musculus [4].
With `COc1cc(/C=C(/C(=O)O)c2ccc(S(C)(=O)=O)cc2)ccc1O`, the Activity with Mus musculus [1] is listed as 9.97%.
Same read-out and setting: the value for `COc1ccc(/C=C(/C(=O)O)c2ccc(S(C)(=O)=O)cc2)cc1OC` was 15.92%.
For the compound `CC(=O)Oc1ccc(/C=C(/C(=O)O)c2ccc(S(C)(=O)=O)cc2)cc1`, the results for the Activity in the data set on Mus musculus [1], in the data set with Mus musculus [2] and in the data set with Mus musculus [3] were 44.75%, 32.87% and 23.34%, respectively.
For `CCOC(=O)/C(=C/c1ccc(OC(C)=O)c(OC)c1)c1ccc(S(C)(=O)=O)cc1`, the Activity in the data set with Mus musculus [1] amounted to 24.11%.
For the compound `CCOC(=O)/C(=C/c1ccc(O)c(OC)c1)c1ccc(S(C)(=O)=O)cc1`, the Activity in the data set on Mus musculus [1] is 34.62%.
On to `CCOC(=O)/C(=C/c1ccc(OC(C)=O)c(Br)c1)c1ccc(S(C)(=O)=O)cc1`, for which the Activity in the data set on Mus musculus [3] was found to be 0%.
Turning to `CS(=O)(=O)c1ccc(/C(=C\c2ccccc2)C(=O)O)cc1`, in the data set on Mus musculus [1], the Activity stood at 17.49%.
As to `COc1cc(/C=C(/C(=O)O)c2ccccc2)ccc1OC(C)=O`, the Activity in the data set on Mus musculus [1] was 21.86%.
Regarding `COc1ccc2c(c1)c(CC(=O)O)c(C)n2C(=O)c1ccc(Cl)cc1` [INDOMETHACIN], the Activity in the data set with Mus musculus [5] is 37.03%; in the data set with Mus musculus [6], “Non-toxic”.
